Results as given in ChEMBL document CHEMBL1123897, “Nucleosides. 146. 1-Methyl-5-(2-deoxy-2-fluoro-beta-D-arabinofuranosyl)uracil, the C-nucleoside isostere of the potent antiviral agent 1-(2-deoxy-2-fluoro-beta-D-arabinofuranosyl)thymine (FMAU). Studies directed toward the synthesis of 2'-deoxy-2'-substituted arabino nucleosides. 6” (1987).

Key:
Assay type in all cases: functional
Conditions in all cases: read-out: ED50 (the source's name)
Homo sapiens [1] = species on record: Homo sapiens; assay: In vitro inhibitory activity against Herpes simplex virus-1(HSV-1) was determined in human foreskin fibroblasts
Homo sapiens [2] = species on record: Homo sapiens; assay: In vitro inhibitory activity against Herpes simplex […] was determined in human foreskin fibroblasts
Homo sapiens [3] = species on record: Homo sapiens; assay: In vitro inhibitory activity against Varicella zoster virus(VZV) was determined in human foreskin fibroblasts

SMILES | EC50 (Homo sapiens [1]) | EC50 (Homo sapiens [2]) | EC50 (Homo sapiens [3])
Cn1cc([C@@H]2O[C@H](CO)[C@@H](O)[C@@H]2F)c(=O)[nH]c1=O | 8.5 µM | 23 µM | 6.4 µM
Cc1cn([C@@H]2O[C@H](CO)[C@@H](O)[C@@H]2F)c(=O)[nH]c1=O [5-METHYL-2'-FLUOROARAURACIL] | 0.06 µM | 0.13 µM | 0.02 µM
